Each structure is given as a SMILES string.

For this test, the target named is Mitogen-activated protein kinase kinase kinase kinase 1 (Homo sapiens, UniProt Q92918). Description: Biochemical Enzyme Assay: HPK1 biochemical enzyme assay: HPK1 enzyme inhibition was measured using a microfluidic mobility shift assay. […] Test compounds were titrated in ten point curves (top final assay concentration […]), and preincubated with enzyme/substrate mix for 30 min prior to initiation of the reaction by addition of ATP (1 mM final concentration) and substrate (1 Î¼M final concentration; Carna Biosciences) diluted in assay buffer supplemented by MgCl2 (final assay concentration of 5 mM). Following 60 min incubation at RT, the reaction was terminated by addition of 60 µl/well termination buffer (Carna Biosciences) and signal determination using a Caliper EZ Reader (Perkin Elmer, UK).
Chain of Mitogen-activated protein kinase kinase kinase kinase 1 (Q92918 whole entry): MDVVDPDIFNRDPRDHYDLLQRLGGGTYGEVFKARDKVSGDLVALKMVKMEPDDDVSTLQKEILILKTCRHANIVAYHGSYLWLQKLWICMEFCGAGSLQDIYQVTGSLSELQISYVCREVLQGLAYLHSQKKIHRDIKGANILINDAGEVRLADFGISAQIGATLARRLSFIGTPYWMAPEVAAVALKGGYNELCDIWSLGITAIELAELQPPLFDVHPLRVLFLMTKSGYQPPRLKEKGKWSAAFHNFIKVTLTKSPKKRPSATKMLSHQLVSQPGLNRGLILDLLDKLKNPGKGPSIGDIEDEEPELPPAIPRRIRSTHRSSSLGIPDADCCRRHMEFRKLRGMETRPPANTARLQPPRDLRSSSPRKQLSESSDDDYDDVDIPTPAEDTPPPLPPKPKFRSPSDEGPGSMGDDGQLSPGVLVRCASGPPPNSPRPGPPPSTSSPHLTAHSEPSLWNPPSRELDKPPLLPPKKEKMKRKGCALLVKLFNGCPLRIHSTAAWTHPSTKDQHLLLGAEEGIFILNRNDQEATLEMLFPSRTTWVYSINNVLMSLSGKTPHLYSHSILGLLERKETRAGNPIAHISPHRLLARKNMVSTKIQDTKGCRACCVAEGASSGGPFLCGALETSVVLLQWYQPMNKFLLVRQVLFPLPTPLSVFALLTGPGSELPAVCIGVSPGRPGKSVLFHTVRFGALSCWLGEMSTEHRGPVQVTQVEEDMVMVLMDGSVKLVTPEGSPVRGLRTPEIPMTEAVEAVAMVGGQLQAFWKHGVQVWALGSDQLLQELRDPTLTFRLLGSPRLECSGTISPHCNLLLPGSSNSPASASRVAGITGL
For the molecule `CCN(C)Cc1nc(Nc2ccc(-c3cnc4cc(F)ccn34)c3c2C(=O)NC3)ccc1[C@@H]1CCOC1`, the 50% inhibitory concentration (IC50) was less than 100 nM. The value for `CO[C@H]1CCC(c2ccc(Nc3ccc(-c4cnc5cc(F)ccn45)c4c3C(=O)NC4)nc2CN(C)C)C1` (stereo partly drawn) was less than 100 nM. Then `CN(C)Cc1cc(Nc2ccc(-c3cnc4cc(F)ccn34)c3c2C(=O)NC3)ncc1C1(O)CCOCC1`, with “in the range around 550 nM”.

Values taken from ChEMBL document CHEMBL5728513, “Substituted isoindolin-1-ones and 2,3-dihydro-1h-pyrrolo[3,4-c]pyridin-1-ones as hpk1 antagonists” (2021).
